Assay: xn = mol fraction of the nth substance listed

COCCOCCOC + CCCCCC
viscosity [mPa·s], 101.33 kPa
Details	x1 = 0.1017	x1 = 0.2006	x1 = 0.3006	x1 = 0.3974	x1 = 0.4983	x1 = 0.4984	x1 = 0.5986	x1 = 0.6954	x1 = 0.8011	x1 = 0.8957
298.15 K	0.326	0.362	0.407	0.455	–	0.52	0.584	0.662	0.761	0.868
303.15 K	0.31	0.344	0.385	0.43	–	0.49	0.548	0.62	0.71	0.806
308.15 K	0.294	0.324	0.362	0.404	0.461	–	0.512	0.576	0.657	0.75
313.15 K	0.28	0.308	0.345	0.383	0.434	–	0.482	0.541	0.616	0.699
318.15 K	0.268	0.285	0.326	0.363	0.41	–	0.457	0.511	0.579	0.657

Cc1ccc(S(=O)O[C@@H]2C[C@H](C)CC[C@H]2C(C)C)cc1 (some centres undefined) + CCCCO
298 K, 101.3 kPa
Details	viscosity [mPa·s]
x1 = 0.00285	2.53
x1 = 0.00515	2.538
x1 = 0.007672	2.595
x1 = 0.01005	2.623
x1 = 0.01302	2.653
x1 = 0.01567	2.683

CO + CCO
Details	viscosity [mPa·s]
293.15 K, 101 kPa, x1 = 0.25	1.134
293.15 K, 101 kPa, x1 = 0.5	0.809
293.15 K, 101 kPa, x1 = 0.75	0.69
293.15 K, 101.3 kPa, x1 = 0.114	1.1
293.15 K, 101.3 kPa, x1 = 0.263	0.997
293.15 K, 101.3 kPa, x1 = 0.501	0.849
293.15 K, 101.3 kPa, x1 = 0.738	0.712
293.15 K, 101.3 kPa, x1 = 0.856	0.651
298.15 K, 101 kPa, x1 = 0.2045	0.94
298.15 K, 101 kPa, x1 = 0.25	1.032
298.15 K, 101 kPa, x1 = 0.3971	0.832
298.15 K, 101 kPa, x1 = 0.5	0.747
298.15 K, 101 kPa, x1 = 0.5962	0.729
298.15 K, 101 kPa, x1 = 0.75	0.639
298.15 K, 101 kPa, x1 = 0.7975	0.634
298.15 K, 101.33 kPa, x1 = 0.0889	1.045
298.15 K, 101.33 kPa, x1 = 0.146	1.008
298.15 K, 101.33 kPa, x1 = 0.2385	0.95
298.15 K, 101.33 kPa, x1 = 0.3311	0.896
298.15 K, 101.33 kPa, x1 = 0.4041	0.855
298.15 K, 101.33 kPa, x1 = 0.5234	0.791
298.15 K, 101.33 kPa, x1 = 0.6076	0.747
298.15 K, 101.33 kPa, x1 = 0.7136	0.694
298.15 K, 101.33 kPa, x1 = 0.8128	0.643
298.15 K, 101.33 kPa, x1 = 0.9156	0.594
303.15 K, 101 kPa, x1 = 0.25	0.939
303.15 K, 101 kPa, x1 = 0.5	0.69
303.15 K, 101 kPa, x1 = 0.75	0.594
308.15 K, 101 kPa, x1 = 0.2045	0.791
308.15 K, 101 kPa, x1 = 0.25	0.858
308.15 K, 101 kPa, x1 = 0.3971	0.706
308.15 K, 101 kPa, x1 = 0.5	0.638
308.15 K, 101 kPa, x1 = 0.5962	0.625
308.15 K, 101 kPa, x1 = 0.75	0.552
308.15 K, 101 kPa, x1 = 0.7975	0.548
313.15 K, 101 kPa, x1 = 0.25	0.784
313.15 K, 101 kPa, x1 = 0.5	0.593
313.15 K, 101 kPa, x1 = 0.75	0.515
313.15 K, 101.3 kPa, x1 = 0.114	0.77
313.15 K, 101.3 kPa, x1 = 0.263	0.709
313.15 K, 101.3 kPa, x1 = 0.501	0.615
313.15 K, 101.3 kPa, x1 = 0.738	0.531
313.15 K, 101.3 kPa, x1 = 0.856	0.491
318.15 K, 101 kPa, x1 = 0.2045	0.667
318.15 K, 101 kPa, x1 = 0.25	0.718
318.15 K, 101 kPa, x1 = 0.3971	0.599
318.15 K, 101 kPa, x1 = 0.5	0.551
318.15 K, 101 kPa, x1 = 0.5962	0.531
318.15 K, 101 kPa, x1 = 0.75	0.482
318.15 K, 101 kPa, x1 = 0.7975	0.474
323.15 K, 101 kPa, x1 = 0.25	0.661
323.15 K, 101 kPa, x1 = 0.5	0.513
323.15 K, 101 kPa, x1 = 0.75	0.452
